Literature values in PMC8391575, “Identification of Novel Cathepsin B Inhibitors with Implications in Alzheimer’s Disease: Computational Refining and Biochemical Evaluation” (Cells, 2021).
Like-named read-outs stand apart in the source and are kept apart here.

Tested on: cathepsin B
Details: cited from earlier work; for pIC50 Experimental: Table 4
[1] = class of the experimental IC50, read-out: Activity Scale Experimental
[2] = Table S1, read-out: IC50: half maximal inhibitory concentration

SMILES | pIC50 Experimental | IC50 [1] | IC50 [2]
CCOC(=O)C(C(=O)OCC)N(C#N)c1nc(SC)nc(N(C)C)n1 [Compound S19, diethyl 2-[cyano-[4-(dimethylamino)-6-methylsulfanyl-1,3,5-triazin-2-yl]amino]propanedioate] | 4.71 | > 2500 nM | –
O=C(CSc1nnc(-c2ccco2)c(-c2ccco2)n1)Nc1ccccc1 [Compound S37, 2-[[5,6-bis(furan-2-yl)-1,2,4-triazin-3-yl]sulfanyl]-N-phenylacetamide] | 5.65 | 300 to 2500 nM | –
COc1cccc(Cn2c(-c3nonc3N)nc3ccccc32)c1 [Compound S27, 4-[1-[(3-methoxyphenyl)methyl]benzimidazol-2-yl]-1,2,5-oxadiazol-3-amine] | 4.34 | > 2500 nM | –
COc1ccc(S(=O)(=O)n2nc(OC(=O)c3ccco3)cc2N)cc1 [Compound S15] | 6.03 | 300 to 2500 nM | –
CCOC(=O)[C@H]1O[C@@H]1C(=O)N[C@H](C(=O)N1CCC[C@H]1C(=O)O)[C@@H](C)CC [Compound S2, (2S)-1-[(2S,3S)-2-[[(2S,3S)-3-ethoxycarbonyloxirane-2-carbonyl]amino]-3-methylpentanoyl]pyrrolidine-2-carboxylic acid] | 8.55 | < 300 nM | –
NCCCCNC(=O)[C@H](Cc1ccc(O)cc1)NC(=O)[C@H]1O[C@@H]1C(=O)O [Compound N7, (2S,3S)-3-{[(2S)-1-[(4-Aminobutyl)amino]-3-(4-hydroxyphenyl)-1-oxo-2-propanyl]carbamoyl}-2-oxiranecarboxylic acid] | 6.55 | < 300 nM | 280 nM
Cn1ncnc2c(=O)n(C)c(=O)nc1-2 [Compound N22, 1,6-dimethylpyrimido[5,4-e][1,2,4]triazine-5,7-dione] | 7.34 | < 300 nM | –
CC(=O)N[C@@H](CC(C)C)C(=O)N[C@@H](CC(C)C)C(=O)N[C@H](C=O)CCCN=C(N)N [Compound N19, 2-acetamido-N-[1-[[5-(diaminomethylideneamino)-1-oxopentan-2-yl]amino]-4-methyl-1-oxopentan-2-yl]-4-methylpentanamide; 2,2,2-trifluoroacetic acid] | 6.36 | 300 to 2500 nM | 440 nM
CC(C)CC(NC(=O)C1OC1C(=O)O)C(=O)NCCCCCO (centres unmarked) [Compound N1, 3-[[1-(5-hydroxypentylamino)-4-methyl-1-oxopentan-2-yl]carbamoyl]oxirane-2-carboxylic acid] | 7.14 | < 300 nM | –
NC(N)=NCCCCNC(=O)C(Cc1ccccc1)NC(=O)C1OC1C(=O)O (centres unmarked) [Compound N15, 3-[[1-[4-(diaminomethylideneamino)butylamino]-1-oxo-3-phenylpropan-2-yl]carbamoyl]oxirane-2-carboxylic acid] | 6.57 | < 300 nM | 270 nM
COc1nc(N(C#N)CC(N)=O)nc(N2CCCC2)n1 [Compound S24, 2-[cyano-(4-methoxy-6-pyrrolidin-1-yl-1,3,5-triazin-2-yl)amino]acetamide] | 4.85 | > 2500 nM | –
CC(=O)OC1(C(F)(F)F)Oc2ccccc2NC1=O (centres unmarked) [Compound S33, [3-oxo-2-(trifluoromethyl)-4H-1,4-benzoxazin-2-yl] acetate] | 6.07 | 300 to 2500 nM | –
Cc1ccc(S(=O)(=O)n2nc(OC(=O)c3ccco3)cc2N)cc1 [Compound S12, [5-amino-1-(4-methylphenyl)sulfonylpyrazol-3-yl] furan-2-carboxylate] | 5.76 | 300 to 2500 nM | 1750 nM
O=C(OC(C(=O)NCc1cccs1)c1ccccn1)c1cccs1 (centres unmarked) [Compound S11, [2-oxo-1-pyridin-2-yl-2-(thiophen-2-ylmethylamino)ethyl]thiophene-2-carboxylate] | 5.2 | > 2500 nM | –
